Results published in PMC5423902, “CXCL9-Derived Peptides Differentially Inhibit Neutrophil Migration In Vivo through Interference with Glycosaminoglycan Interactions” (Frontiers in Immunology, 2017).

What was measured:
[1] = tested on: CXCL8-induced neutrophil migration; test: CXCL8-induced neutrophil migration to the knee cavity; type: in vivo, mouse (C57BL/6); conditions: 66 µg peptide i.v., 1 µg CXCL8 intra-articular, C57BL/6, 3 h, n ≥ 5, Figure 5
Description: In vivo neutrophil extravasation to the peritoneal or the knee cavity was examined, respectively, by intraperitoneal or intra-articular injection, of endotoxin-free recombinant CXCL8(1-77) (PeproTech) or vehicle (PBS) in female NMRI or C57BL/6 mice, as described previously ([42], [48]). Simultaneously, synthetic CXCL9 peptide was co-injected either intraperitoneally or injected intravenously. After 2 h (peritoneal cavity) or 3 h (knee cavity), mice were sacrificed. The peritoneal cavity was washed with saline enriched with 2% FCS and 20 U/ml heparin and total leukocyte counts were determined. For the preparation of cytospins, 10^5 cells were used and absolute number and percentage of neutrophils in the lavages were determined in duplicate independently by two researchers by differential microscopic counting. […] The number of total leukocytes was determined by counting leukocytes in a Neubauer chamber after staining with Turk’s solution. […]
Figure 5 CXCL9(74-93) inhibits CXCL8-induced but not monosodium urate (MSU) crystal-induced neutrophil migration to the knee cavity. […] Simultaneously, 66 µg of CXCL9(74-93) was injected intravenously and 3 h post injection the number of total cells (A) and neutrophils (B) were evaluated by washing the cavity and differentially counting the leukocyte subtypes on May-Grunwald-Giemsa-stained cytospins. […]

[2] = tested on: CXCL8(1-77) binding to heparin; conditions: compared with CXCL9(74-103) missing 5 to 12 NH2-terminal residues; cited from earlier work
Description: To further investigate the role of the COOH-terminal amino acids, the ability of CXCL9(74-93) to inhibit binding of chemokines to heparin and HS was evaluated. CXCL9(74-93) and CXCL9(74-103) together with a COOH-terminal peptide of one of the strongest GAG-binding chemokines, namely, CXCL4(47-70), were compared in an ELISA-like assay to compete with CXCL8 for heparin bind ...

[3] = tested on: CXCL8-induced neutrophil migration; conditions: CXCL8 into tibiofemoral articulation of C57BL/6 mice; cited from earlier work
[4] = tested on: dengue virus; conditions: cited from earlier work
From the text: (§1) In several inflammatory diseases, an enhanced expression of chemokines leads to the pathological and continuous accumulation of activated leukocytes in tissues and consequently tissue damage. Thus, a reduction of chemokine activity at sites of excessive inflammation is needed. Although a lot of efforts were invested in the development of small molecule chemokine receptor antagonists, since the discovery of chemokine receptors as members of the GPCR family about two decades ago, success stories are limited to a few drugs that entered the market ([66]). Recently, inhibition of chemokine–GAG inte ...

[5] = tested on: herpes simplex virus-1; conditions: cited from earlier work
From the text: as §1

[6] = tested on: respiratory syncytial virus; conditions: cited from earlier work
From the text: as §1

Substance | neutrophils in the joint upon CXCL8 ([1]; control 13.3 × 10^3) | percentage of neutrophils in the joint upon CXCL8 ([1]; control 60.5%) | competition with CXCL8 for heparin binding [2] | inhibition of neutrophil chemotactic activity of CXCL8 in the tibiofemoral articulation [3] | inhibition of viral infection of cells [4] | inhibition of viral infection of cells [5] | inhibition of viral infection of cells [6]
74KKKQKNGKKHQKKKVLKVRK93 [CXCL9(74-93), COOH-terminal peptide of CXCL9 lacking the 10 COOH-terminal amino acids of CXCL9(74-103)] | 0.67 × 10^3 neutrophils | 17.5% |  |  |  |  | 
74KKKQKNGKKHQKKKVLKVRKSQRSRQKKTT103 [CXCL9(74-103), COOH-terminal peptide of CXCL9] |  |  | more potently competes with CXCL8 for binding to heparin | could inhibit the neutrophil chemotactic activity of CXCL8 in vivo | able to inhibit viral infection of cells | able to inhibit viral infection of cells | able to inhibit viral infection of cells
